Assay results: ChEMBL document CHEMBL1201862, “PubChem BioAssay data set” (2004)
Activity calls are given as the source filed them.

How the values were obtained:
[1] = target: Lysosomal acid glucosylceramidase (Homo sapiens, UniProt P04062); assay: Dose response cell-based high throughput screening assay to identify enhancers of beta-glucosidase activity. [Related pubchem assays: 784 ]; type: functional
[2] = target: Cytochrome P450 2C9 (Homo sapiens, UniProt P11712); conditions: Potency
[3] = target: Cytochrome P450 3A4 (Homo sapiens, UniProt P08684); conditions: Potency;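 note: confirmatory qHTS run detecting inhibitors and substrates of CYP3A4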
[4] = target: Eukaryotic translation initiation factor 4H (Homo sapiens, UniProt Q15056); assay: eIF4H binding inhibition – biochemical, uHTS, fluorescence polarization, translation initiation inhibitor project, primary screen (AID 2012)
[5] = target: T1, Carboxy-terminal domain RNA polymerase II polypeptide A small phosphatase 1 (Homo sapiens, UniProt Q9GZU7); assay: CTDSP1 inhibitors, concentration-response, biochemical, absorbance readout, ultra-high-throughput screen actives (AID 540297); type: functional
T1 sequence (Q9GZU7 whole entry): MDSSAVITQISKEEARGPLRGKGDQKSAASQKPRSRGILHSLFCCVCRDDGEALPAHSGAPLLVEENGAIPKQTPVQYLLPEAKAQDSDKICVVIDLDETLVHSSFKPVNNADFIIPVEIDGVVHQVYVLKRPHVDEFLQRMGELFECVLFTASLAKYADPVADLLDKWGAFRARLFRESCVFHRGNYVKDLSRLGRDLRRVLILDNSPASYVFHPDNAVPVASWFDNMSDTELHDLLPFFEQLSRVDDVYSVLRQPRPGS

[6] = target: Polyadenylate-binding protein 1 (Homo sapiens, UniProt P11940); assay: blockers of PABP interaction with poly(A) – biochemical, fluorescence polarization, […] (AID 2014)
[7] = target: Mucolipin-3 (Homo sapiens, UniProt Q8TDD5); assay: Dose response cell-based high-throughput screening assay for agonists of the transient receptor potential channel ML3 (TRPML3). [Related pubchem assays: 1526, 1424, 1448 ]; type: functional
[8] = tested on: Vero; assay: cells; type: functional; conditions: Chlorocebus sabaeus
[9] = target: Ion channel NompC (Danio rerio, UniProt Q7T1G6); assay: Fluorescence counterscreen assay for TRPML3 agonists: dose response cell-based high-throughput screening assay to identify agonists of the transient receptor potential channel N1 (TRPN1). [Related pubchem assays: 1526, 1424, 1448 ]; type: functional
[10] = target: T2, Short transient receptor potential channel 4 (Mus musculus, UniProt Q9QUQ5); assay: calcium entry via TRPC4 opening agents – cell-based, HEK293 TRPC4/mu-opioid, Fluo-4 calcium, dose response (AID 434937); type: functional
T2 sequence (Q9QUQ5 whole entry): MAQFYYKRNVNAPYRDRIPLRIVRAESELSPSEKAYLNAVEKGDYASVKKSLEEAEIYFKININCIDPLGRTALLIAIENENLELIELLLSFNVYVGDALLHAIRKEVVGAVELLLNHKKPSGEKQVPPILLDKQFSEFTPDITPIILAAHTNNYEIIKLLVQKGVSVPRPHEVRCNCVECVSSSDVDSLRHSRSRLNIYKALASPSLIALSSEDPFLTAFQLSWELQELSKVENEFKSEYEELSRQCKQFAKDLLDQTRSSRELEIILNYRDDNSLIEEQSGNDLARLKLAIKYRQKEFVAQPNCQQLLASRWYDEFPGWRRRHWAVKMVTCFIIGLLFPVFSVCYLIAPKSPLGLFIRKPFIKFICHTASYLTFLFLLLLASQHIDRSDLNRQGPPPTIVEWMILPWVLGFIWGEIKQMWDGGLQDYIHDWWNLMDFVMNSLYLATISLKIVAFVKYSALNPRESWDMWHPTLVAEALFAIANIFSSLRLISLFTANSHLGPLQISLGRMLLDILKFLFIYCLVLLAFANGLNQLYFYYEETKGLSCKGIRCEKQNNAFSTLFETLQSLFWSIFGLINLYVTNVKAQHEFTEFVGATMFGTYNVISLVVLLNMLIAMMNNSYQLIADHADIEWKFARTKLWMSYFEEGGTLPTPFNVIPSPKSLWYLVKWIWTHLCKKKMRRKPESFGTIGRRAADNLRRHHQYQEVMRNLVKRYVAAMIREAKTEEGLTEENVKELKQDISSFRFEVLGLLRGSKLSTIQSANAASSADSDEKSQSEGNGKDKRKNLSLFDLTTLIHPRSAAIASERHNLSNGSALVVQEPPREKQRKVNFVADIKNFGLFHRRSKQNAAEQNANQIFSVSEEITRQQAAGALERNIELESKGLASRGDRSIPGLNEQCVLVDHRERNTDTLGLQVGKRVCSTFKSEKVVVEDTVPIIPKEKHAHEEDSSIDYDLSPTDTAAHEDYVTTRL

[11] = tested on: Streptococcus sp. 'group A'; assay: Streptococcus pyogenes SK(-)GAS viability under kanamycin – luminescence, BacTiterGlo, confirmation, counter-screen for streptokinase expression inhibitor project, dose response (AID 1900); type: functional, organism-based
[12] = tested on: Streptococcus; assay: GAS UMAA2166 growth inhibition – luminescence, BacTiterGlo, counter-screen for streptokinase expression inhibitor project, dose response (AID 1915); type: functional, organism-based;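 note: potency for reduction of bacterial viability or growth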
[13] = NIH3T3 cell viability loss – ATP luminescence, mouse fibroblasts, counter-screen, dose response (AID 2010); type: functional, cell-based;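 note: cells exposed to compound for about 90 hours before reading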
[14] = A Cell Based Secondary Assay To Explore Cytotoxicity of Compounds that Sensitize Mycobacterium Tuberculosis to Beta-Lactam Antibiotics.; type: functional
[15] = Trypanosoma cruzi growth suppression in host cells – NIH3T3 host cells, beta-gal luminescence, confirmation (AID 2044); type: functional, cell-based;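 note: intracellular parasites grown in NIH/3T3 mouse fibroblasts as host cells; luminescent beta-galactosidase reporter signal from transgenic T. cruzi replicating inside host cells; inhibitors lower the luminescence signal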
[16] = target: Acyl-homoserine lactone acylase PvdQ (Pseudomonas aeruginosa (strain LESB58), UniProt Q9I194); assay: PvdQ acylase enzyme activity blockers – biochemical, fluorescence, plate reader and imaging, cherry-picks, dose response (AID 493231)
[17] = target: T3, Eukaryotic translation initiation factor 2-alpha kinase 3 (Homo sapiens, UniProt Q9NZJ5); assay: Dose response cell-based high-throughput screening assay to measure PERK inhibition. [Related pubchem assays: 1416 ]; type: functional
T3 sequence (Q9NZJ5 whole entry): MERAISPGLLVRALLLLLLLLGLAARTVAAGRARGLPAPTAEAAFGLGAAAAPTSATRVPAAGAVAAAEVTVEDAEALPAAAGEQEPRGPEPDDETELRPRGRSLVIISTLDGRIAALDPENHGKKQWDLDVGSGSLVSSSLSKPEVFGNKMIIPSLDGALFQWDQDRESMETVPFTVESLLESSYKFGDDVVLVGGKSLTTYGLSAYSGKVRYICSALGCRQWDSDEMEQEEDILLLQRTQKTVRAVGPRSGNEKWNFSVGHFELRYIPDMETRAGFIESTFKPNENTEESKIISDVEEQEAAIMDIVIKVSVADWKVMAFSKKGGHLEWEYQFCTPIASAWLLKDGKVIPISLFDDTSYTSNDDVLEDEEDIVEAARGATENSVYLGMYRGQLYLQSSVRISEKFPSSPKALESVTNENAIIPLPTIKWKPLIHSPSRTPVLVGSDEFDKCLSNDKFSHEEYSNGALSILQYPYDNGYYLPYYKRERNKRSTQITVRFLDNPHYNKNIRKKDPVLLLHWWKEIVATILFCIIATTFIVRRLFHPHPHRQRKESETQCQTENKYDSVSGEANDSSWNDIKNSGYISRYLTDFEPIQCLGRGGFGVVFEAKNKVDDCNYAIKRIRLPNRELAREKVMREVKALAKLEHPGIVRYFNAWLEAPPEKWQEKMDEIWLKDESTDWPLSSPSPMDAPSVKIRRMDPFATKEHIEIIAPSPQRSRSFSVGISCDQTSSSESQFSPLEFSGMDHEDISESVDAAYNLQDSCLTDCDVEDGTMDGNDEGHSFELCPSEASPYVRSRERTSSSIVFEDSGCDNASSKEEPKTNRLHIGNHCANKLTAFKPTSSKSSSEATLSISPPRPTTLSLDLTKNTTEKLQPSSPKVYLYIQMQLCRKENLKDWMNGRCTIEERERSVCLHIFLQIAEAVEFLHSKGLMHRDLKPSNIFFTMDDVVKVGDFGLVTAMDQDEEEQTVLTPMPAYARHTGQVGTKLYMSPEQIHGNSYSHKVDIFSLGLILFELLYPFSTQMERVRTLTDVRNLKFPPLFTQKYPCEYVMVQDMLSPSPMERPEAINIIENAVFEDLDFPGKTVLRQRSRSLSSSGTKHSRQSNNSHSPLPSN

[18] = target: T3, Eukaryotic translation initiation factor 2-alpha kinase 3; assay: Counterscreen assay for PERK inhibitors: Dose response cell-based high throughput screening assay to measure inhibition of PERK at 6 hours. [Related pubchem assays: 1522, 1416 ]; type: functional
[19] = target: T4, Heat shock factor protein 1 (Mus musculus, UniProt P38532); assay: decrease of HSF1-responsive luciferase luminescence – cell-based, NIH3T3, dose retest, confirmation (AID 2382); type: functional;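 note: NIH3T3 fibroblasts with HSF1-driven luciferase reporter stressed by proteasome inhibitor MG132; luminescence from HSF1-driven luciferase expression after 8 hours of MG132 stress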
T4 sequence (P38532 whole entry): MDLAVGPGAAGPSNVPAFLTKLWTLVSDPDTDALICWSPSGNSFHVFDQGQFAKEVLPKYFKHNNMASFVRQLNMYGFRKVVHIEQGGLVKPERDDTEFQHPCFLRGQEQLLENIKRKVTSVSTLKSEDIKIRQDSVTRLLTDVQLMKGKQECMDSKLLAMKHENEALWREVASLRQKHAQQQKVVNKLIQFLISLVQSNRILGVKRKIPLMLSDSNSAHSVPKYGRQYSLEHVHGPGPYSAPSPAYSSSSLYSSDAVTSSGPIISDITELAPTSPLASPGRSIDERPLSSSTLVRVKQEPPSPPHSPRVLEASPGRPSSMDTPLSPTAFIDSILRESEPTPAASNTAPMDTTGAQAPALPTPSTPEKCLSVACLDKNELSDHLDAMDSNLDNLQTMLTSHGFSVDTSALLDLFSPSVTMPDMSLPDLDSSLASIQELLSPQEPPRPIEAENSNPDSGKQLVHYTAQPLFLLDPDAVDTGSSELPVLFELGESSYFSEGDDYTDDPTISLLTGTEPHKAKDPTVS

[20] = target: T5, SUMO-activating enzyme (Homo sapiens, UniProt Q9UBT2); assay: blockers of SAE1/SAE2–UBC9 SUMO transfer – biochemical, HTRF, uHTS, primary screen (AID 2006); type: protein-complex assay
[21] = target: Bcl-2-like protein 10 (Homo sapiens, UniProt Q9HD36); assay: Bcl-B/TR3 peptide binding disruption – biochemical, fluorescence polarization, FITC-TR3 peptide, selectivity assay for Bfl-1 inhibitor project, primary screen (AID 748);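 note: fluorescence polarization from a fluorescein-labelled TR3 peptide binding purified Bcl-B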
[22] = target: T5, SUMO-activating enzyme; assay: blockers of UBC9-mediated SUMO conjugation – biochemical, AlphaScreen, SUMOylation inhibitor project, confirmation (AID 2018); type: functional
[23] = target: T6, Coagulation factor XII (Homo sapiens, UniProt P00748); type: functional;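 note: activated factor XIIa alpha cleaving a fluorogenic AMC peptide substrate; inhibitor potency from loss of enzyme activity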
T6 sequence (P00748 whole entry): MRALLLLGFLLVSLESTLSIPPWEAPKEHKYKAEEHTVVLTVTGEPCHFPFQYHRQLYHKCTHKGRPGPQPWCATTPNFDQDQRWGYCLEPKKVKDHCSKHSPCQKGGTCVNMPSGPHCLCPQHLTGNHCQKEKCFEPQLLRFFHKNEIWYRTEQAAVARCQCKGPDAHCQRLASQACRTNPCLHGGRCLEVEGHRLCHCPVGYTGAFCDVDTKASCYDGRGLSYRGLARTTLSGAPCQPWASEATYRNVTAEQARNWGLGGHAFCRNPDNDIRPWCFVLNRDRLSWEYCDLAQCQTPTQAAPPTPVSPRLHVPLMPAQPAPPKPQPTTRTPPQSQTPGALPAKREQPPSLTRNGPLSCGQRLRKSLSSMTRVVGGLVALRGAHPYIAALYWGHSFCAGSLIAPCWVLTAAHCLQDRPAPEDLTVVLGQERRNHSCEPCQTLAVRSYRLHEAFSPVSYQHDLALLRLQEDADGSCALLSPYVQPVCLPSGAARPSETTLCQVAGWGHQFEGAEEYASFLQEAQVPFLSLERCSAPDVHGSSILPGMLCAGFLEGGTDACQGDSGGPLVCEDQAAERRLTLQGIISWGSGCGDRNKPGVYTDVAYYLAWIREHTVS

Sequence of Ion channel NompC (Q7T1G6 whole entry): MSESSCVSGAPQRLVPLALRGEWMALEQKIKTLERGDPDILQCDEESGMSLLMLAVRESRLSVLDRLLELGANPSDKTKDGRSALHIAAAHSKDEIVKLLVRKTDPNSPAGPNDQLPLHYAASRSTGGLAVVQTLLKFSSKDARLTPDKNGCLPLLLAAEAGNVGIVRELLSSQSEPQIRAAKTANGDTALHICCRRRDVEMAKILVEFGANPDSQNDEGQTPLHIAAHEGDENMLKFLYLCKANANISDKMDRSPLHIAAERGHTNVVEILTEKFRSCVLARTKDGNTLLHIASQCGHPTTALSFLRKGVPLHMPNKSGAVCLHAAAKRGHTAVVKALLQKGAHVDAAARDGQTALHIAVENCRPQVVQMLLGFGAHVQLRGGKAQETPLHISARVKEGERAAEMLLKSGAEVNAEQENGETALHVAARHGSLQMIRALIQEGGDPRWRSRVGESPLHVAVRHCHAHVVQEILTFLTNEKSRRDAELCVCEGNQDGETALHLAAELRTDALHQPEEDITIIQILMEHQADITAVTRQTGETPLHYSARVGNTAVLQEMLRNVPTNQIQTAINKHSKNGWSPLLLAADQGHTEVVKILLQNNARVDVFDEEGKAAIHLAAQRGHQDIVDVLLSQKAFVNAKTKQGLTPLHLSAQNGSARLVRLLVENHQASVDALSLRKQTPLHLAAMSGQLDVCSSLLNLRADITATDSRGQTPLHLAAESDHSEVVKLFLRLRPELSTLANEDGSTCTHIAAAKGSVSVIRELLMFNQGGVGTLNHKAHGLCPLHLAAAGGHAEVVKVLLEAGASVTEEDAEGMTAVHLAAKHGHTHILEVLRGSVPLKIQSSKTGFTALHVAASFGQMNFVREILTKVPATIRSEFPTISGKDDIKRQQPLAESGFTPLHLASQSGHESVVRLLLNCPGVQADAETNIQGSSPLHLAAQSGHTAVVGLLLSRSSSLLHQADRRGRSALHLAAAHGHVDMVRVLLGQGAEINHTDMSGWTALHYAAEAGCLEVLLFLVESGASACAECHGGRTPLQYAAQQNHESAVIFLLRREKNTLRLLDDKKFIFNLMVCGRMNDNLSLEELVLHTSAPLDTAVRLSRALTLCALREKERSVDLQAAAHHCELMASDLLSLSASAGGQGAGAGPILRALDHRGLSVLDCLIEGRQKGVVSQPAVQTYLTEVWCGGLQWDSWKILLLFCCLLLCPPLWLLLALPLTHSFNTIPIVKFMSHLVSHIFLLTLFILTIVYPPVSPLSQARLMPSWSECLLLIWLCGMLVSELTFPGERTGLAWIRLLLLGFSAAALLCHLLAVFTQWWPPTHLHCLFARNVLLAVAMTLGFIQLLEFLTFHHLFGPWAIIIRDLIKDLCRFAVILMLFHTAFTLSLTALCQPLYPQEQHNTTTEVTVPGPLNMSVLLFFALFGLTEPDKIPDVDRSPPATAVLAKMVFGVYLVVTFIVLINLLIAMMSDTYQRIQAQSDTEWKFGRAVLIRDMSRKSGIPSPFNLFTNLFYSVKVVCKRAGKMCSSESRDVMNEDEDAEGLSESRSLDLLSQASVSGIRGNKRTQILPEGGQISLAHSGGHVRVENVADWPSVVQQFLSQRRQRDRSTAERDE
Sequence of Mucolipin-3 (Q8TDD5 whole entry): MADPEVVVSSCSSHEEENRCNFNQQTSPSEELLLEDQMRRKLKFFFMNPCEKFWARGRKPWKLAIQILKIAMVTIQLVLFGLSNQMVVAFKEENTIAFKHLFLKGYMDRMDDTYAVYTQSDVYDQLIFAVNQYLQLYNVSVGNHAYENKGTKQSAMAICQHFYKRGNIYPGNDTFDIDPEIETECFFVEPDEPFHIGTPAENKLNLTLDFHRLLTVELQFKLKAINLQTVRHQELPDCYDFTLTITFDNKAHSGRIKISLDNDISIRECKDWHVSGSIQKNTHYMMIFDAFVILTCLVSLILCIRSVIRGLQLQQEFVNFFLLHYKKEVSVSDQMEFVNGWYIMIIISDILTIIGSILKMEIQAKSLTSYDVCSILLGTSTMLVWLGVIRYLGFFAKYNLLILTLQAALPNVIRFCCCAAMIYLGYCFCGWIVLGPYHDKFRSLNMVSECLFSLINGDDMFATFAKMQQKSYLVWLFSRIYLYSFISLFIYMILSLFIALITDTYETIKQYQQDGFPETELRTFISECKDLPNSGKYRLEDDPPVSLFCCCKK
T5 sequence (Q9UBE0 whole entry): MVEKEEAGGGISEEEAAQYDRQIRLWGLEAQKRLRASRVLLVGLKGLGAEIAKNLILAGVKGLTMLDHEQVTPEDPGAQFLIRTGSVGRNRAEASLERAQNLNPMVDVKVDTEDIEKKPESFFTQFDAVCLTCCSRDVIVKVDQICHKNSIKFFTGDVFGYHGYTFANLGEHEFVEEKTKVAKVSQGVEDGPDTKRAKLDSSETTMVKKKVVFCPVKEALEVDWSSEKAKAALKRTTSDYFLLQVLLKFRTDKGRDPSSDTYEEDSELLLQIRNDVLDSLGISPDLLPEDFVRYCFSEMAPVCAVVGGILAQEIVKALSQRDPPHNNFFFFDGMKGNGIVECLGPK
T5 sequence (Q9UBT2 whole entry): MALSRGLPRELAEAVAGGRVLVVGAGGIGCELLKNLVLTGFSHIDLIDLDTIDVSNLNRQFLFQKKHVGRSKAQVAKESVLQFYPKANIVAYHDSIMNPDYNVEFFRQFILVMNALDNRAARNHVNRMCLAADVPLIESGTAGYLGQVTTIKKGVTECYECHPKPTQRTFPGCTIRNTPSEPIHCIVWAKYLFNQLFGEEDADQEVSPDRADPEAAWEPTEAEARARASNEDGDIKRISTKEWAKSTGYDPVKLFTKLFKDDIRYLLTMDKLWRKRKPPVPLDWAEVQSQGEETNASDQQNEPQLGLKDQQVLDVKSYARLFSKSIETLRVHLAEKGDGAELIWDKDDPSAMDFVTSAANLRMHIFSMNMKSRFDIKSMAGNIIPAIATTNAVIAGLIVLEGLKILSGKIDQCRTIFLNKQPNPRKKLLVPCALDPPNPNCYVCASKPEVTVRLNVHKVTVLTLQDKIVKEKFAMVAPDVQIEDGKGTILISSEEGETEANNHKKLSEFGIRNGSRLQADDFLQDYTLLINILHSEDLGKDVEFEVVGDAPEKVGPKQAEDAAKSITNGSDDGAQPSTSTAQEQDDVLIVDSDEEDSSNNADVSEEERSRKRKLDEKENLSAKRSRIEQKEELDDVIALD
Sequence of Polyadenylate-binding protein 1 (P11940 whole entry): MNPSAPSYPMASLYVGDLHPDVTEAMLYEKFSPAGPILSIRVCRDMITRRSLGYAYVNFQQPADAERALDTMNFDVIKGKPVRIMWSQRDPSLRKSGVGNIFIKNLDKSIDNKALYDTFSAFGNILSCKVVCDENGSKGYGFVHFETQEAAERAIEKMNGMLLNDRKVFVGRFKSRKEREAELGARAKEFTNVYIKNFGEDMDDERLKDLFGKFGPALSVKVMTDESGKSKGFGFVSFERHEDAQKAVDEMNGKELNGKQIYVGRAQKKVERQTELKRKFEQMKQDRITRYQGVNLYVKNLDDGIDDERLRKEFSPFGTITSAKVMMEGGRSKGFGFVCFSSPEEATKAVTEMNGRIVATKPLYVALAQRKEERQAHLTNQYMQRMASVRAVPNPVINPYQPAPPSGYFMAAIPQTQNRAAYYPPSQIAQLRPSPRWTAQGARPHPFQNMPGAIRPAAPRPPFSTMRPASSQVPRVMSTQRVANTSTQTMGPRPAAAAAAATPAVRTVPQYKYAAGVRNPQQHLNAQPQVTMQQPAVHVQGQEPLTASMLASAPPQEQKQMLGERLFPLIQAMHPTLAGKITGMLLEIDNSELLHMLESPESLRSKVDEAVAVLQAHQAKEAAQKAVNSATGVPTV
Sequence of Lysosomal acid glucosylceramidase (P04062 whole entry): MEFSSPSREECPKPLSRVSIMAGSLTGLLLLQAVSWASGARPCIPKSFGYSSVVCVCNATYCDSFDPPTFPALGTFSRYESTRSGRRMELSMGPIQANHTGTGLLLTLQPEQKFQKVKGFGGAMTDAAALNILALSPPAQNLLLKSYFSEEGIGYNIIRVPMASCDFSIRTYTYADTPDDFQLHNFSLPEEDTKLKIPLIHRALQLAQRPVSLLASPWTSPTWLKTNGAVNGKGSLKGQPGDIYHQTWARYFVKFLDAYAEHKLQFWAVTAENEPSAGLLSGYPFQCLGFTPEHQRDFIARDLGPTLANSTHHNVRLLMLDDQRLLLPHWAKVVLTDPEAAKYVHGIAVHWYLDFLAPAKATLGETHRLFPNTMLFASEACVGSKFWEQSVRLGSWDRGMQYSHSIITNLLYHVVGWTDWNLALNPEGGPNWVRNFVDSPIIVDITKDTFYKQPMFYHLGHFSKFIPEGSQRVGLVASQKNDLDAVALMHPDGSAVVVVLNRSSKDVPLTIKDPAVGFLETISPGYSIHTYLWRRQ
Sequence of Cytochrome P450 2C9 (P11712 whole entry): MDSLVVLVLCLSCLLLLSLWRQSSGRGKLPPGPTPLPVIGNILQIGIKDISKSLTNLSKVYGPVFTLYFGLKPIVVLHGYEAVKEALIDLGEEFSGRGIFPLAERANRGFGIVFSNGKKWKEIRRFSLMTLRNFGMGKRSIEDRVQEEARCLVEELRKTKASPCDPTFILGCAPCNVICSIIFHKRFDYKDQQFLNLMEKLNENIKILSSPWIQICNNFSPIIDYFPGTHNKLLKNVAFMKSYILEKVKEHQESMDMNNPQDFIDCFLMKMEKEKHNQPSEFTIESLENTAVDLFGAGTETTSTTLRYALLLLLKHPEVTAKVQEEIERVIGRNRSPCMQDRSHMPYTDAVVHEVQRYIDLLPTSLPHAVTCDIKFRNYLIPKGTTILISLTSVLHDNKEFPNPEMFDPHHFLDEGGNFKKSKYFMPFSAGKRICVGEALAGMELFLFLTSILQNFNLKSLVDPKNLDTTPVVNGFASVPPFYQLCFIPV
Sequence of Bcl-2-like protein 10 (Q9HD36 whole entry): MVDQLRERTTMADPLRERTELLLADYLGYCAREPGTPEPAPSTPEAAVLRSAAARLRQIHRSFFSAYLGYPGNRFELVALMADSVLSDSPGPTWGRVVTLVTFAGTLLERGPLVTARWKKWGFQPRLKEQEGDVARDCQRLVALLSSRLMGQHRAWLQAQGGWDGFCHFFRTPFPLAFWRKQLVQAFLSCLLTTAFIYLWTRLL

CCOC(=O)C1CCN(C(=O)c2ccc(NC(=O)C3CCCO3)cc2)CC1 (stereo unspecified)
EC50 [1]: > 50 µM (not active)

CC(C)[C@H]1C(=O)N2CCC[C@@H]2[C@]2(O)O[C@@](NC(=O)[C@H]3C=C4c5cccc6[nH]cc(c56)C[C@H]4N(C)C3)(C(C)C)C(=O)N12
AC50 [2]: 25.1 µM (inconclusive)

C/C=C/OC(=O)NC(c1ccccc1)[C@]1(C(C)=O)CCCC1=O (stereo partly specified)
AC50 [3]: 0.126 µM (inconclusive)
AC50 [2]: 3.98 µM (inconclusive)

C[N+]1(CC2COC3(CCCCC3)O2)CCCCC1 (stereo unspecified)
IC50 [4]: > 100 µM (inactive)
IC50 [5]: 8.39 µM (active)
IC50 [6]: 6.05 µM (active)

O=C(N=Nc1c(O)[nH]c2ccccc12)c1cc(-c2cccs2)[nH]n1
IC50 [4]: 11.5 µM (active)
IC50 [6]: 28.8 µM (active)

COc1ccc(C(=O)NC(=S)NNC(=O)c2c(-c3ccccc3)noc2C)cc1OC
EC50 [7]: 7.51 µM (active)
CC50 [8]: 17.2 µM (active)
EC50 [9]: 7.42 µM (active)
EC50 [10]: 6.68 µM (active)
EC50 [11]: 0.62 µM (active)
EC50 [12]: 7.7 µM (active)

COc1ccc2c(c1)c(CC(=O)Nc1ccc(C)cc1)c(C)n2C(=O)c1ccc(Cl)cc1
EC50 [13]: > 60 µM (not active)
CC50 [14]: > 40 µM (active)
EC50 [15]: 1.04 µM (active)

N#CC(c1ccc(F)cc1)c1ccc(C(=O)c2ccccc2)cc1 (stereo unspecified)
AC50 [16]: > 100 µM (inactive)

Cc1ccccc1CO/N=C/c1[nH]ncc1Br
EC50 [17]: > 55.7 µM (not active)
EC50 [18]: > 55.7 µM (not active)
EC50 [19]: > 195 µM (not active)

CN(C)c1cccc(C(=O)OCc2cc(=O)oc3cc(O)ccc23)c1
IC50 [20]: 22.6 µM (active)
IC50 [21]: 62.4 µM (inactive)
IC50 [22]: 5.73 µM (active)

C[C@]12CCC[C@H](O1)[C@H]([C@@H](O)c1ccccc1)O2
AC50 [16]: 54 µM (active)

CN(C)c1ncc(S(=O)(=O)c2ccccc2)c(-c2ccc(Cl)cc2Cl)n1
EC50 [7]: 1.87 µM (active)
EC50 [9]: > 29.9 µM (not active)

Cc1ccccc1NC(=O)Nc1cccs1
EC50 [1]: > 50 µM (not active)

Cc1ccc(S(=O)(=O)NCC(=O)OCC(=O)Nc2ncc(Cl)cc2Cl)cc1
IC50 [23]: > 50 µM (inactive)
IC50 [21]: 71.1 µM (inactive)
